Source: PubChem BioAssay (NCI)
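Briefly, cells in 96-well plates were exposed to five compound concentrations for 48 h, and endpoints were estimated by linear interpolation. At the TGI there is no net growth.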

Experiments:
Assay in all cases: DTP human tumour cell line panel, 48 h
[1] = test system: A549 NSCLC
[2] = test system: M14 melanoma
[3] = test system: OVCAR-5 ovarian
[4] = test system: UACC-62 melanoma
[5] = test system: MOLT-4 leukemia
[6] = test system: SN12C renal
[7] = test system: IGROV1 ovarian
[8] = test system: SF-295 CNS
[9] = test system: SK-MEL-2 melanoma
[10] = test system: SK-OV-3 ovarian
[11] = test system: 786-0 renal
[12] = test system: TK-10 renal
[13] = test system: NCI-H226 lung
[14] = test system: RPMI-8226 leukemia
[15] = test system: MDA-MB-231 breast
[16] = test system: HT29 colon
[17] = test system: T-47D breast
[18] = test system: KM12 colon
[19] = test system: NCI-H460 lung
[20] = test system: OVCAR-4 ovarian
[21] = test system: BT-549 breast
[22] = test system: PC-3 prostate
[23] = test system: SR leukemia
[24] = test system: HCT-116 colon
[25] = test system: K-562 leukemia
[26] = test system: SF-539 CNS
[27] = test system: RXF 393 renal
[28] = test system: HOP-62 NSCLC
[29] = test system: MDA-N
[30] = test system: NCI/ADR-RES ovarian
[31] = test system: SNB-19 CNS
[32] = test system: U251 CNS
[33] = test system: A498 renal
[34] = test system: MALME-3M melanoma
[35] = test system: HL-60(TB) leukemia
[36] = test system: HCT-15 colon
[37] = test system: ACHN renal
[38] = test system: UACC-257 melanoma
[39] = test system: LOX IMVI melanoma
[40] = test system: SF-268 CNS
[41] = test system: COLO 205 colon
[42] = test system: SK-MEL-28 melanoma
[43] = test system: SW-620 colon
[44] = test system: MCF7 breast
[45] = test system: NCI-H23 lung
[46] = test system: OVCAR-8 ovarian
[47] = test system: SNB-75 CNS
[48] = test system: SK-MEL-5 melanoma
[49] = test system: OVCAR-3 ovarian
[50] = test system: CAKI-1 renal
[51] = test system: HS 578T breast
[52] = test system: DU-145 prostate
[53] = test system: UO-31 renal
[54] = test system: MDA-MB-435
[55] = test system: HCC-2998 colon
[56] = test system: NCI-H522 lung
[57] = test system: HOP-92 NSCLC
[58] = test system: CCRF-CEM leukemia
[59] = test system: EKVX NSCLC

O=C1C=CC2(O[C@H](c3ccccc3)[C@@H](c3ccccc3)O2)C(SC(=O)c2ccccc2)C1 (stereo partly drawn)
TGI [1]: 17.4 µM | TGI [2]: 3.07 µM | TGI [3]: 3.27 µM | TGI [4]: 5.84 µM | TGI [5]: > 100 µM | TGI [6]: 6.42 µM | TGI [7]: 2.86 µM | TGI [8]: 6.85 µM | TGI [9]: 3.51 µM | TGI [10]: 7.01 µM | TGI [11]: 1.76 µM | TGI [12]: 6.64 µM | TGI [13]: 4.32 µM | TGI [14]: 3.25 µM | TGI [15]: 18 µM | TGI [16]: 3.89 µM | TGI [17]: 7.89 µM | TGI [18]: 6.87 µM | TGI [19]: 15.6 µM | TGI [20]: 5.13 µM | TGI [21]: 1.65 µM | TGI [22]: 4.58 µM | TGI [23]: > 100 µM | TGI [24]: 1.53 µM | TGI [25]: > 100 µM | TGI [26]: 3.29 µM | TGI [27]: 0.726 µM | TGI [28]: 3.31 µM | TGI [29]: 3.32 µM | TGI [30]: 3.22 µM | TGI [31]: 5.63 µM | TGI [32]: 2.9 µM | TGI [33]: 20.6 µM | TGI [34]: 6.54 µM | TGI [35]: 7.7 µM | TGI [36]: 2.2 µM | TGI [37]: 3.01 µM | TGI [38]: 3.97 µM | TGI [39]: 2.33 µM | TGI [40]: 3.02 µM | TGI [41]: 2.69 µM | TGI [42]: 3.55 µM | TGI [43]: 0.811 µM | TGI [44]: 2.83 µM | TGI [45]: 3.82 µM | TGI [46]: 0.516 µM | TGI [47]: 5.34 µM | TGI [48]: 2.87 µM | TGI [49]: 4.41 µM | TGI [50]: 6.53 µM | TGI [51]: 5.04 µM | TGI [52]: > 100 µM | TGI [53]: 2.66 µM | TGI [54]: 4.8 µM

CCOC(=O)c1c(N)nn2c1cc1cccccc12
TGI [1]: > 100 µM | TGI [2]: > 100 µM | TGI [3]: > 100 µM | TGI [4]: 50.8 µM | TGI [5]: > 100 µM | TGI [6]: > 100 µM | TGI [7]: 94.8 µM | TGI [8]: 86.7 µM | TGI [9]: 45.1 µM | TGI [55]: > 100 µM | TGI [10]: > 100 µM | TGI [11]: > 100 µM | TGI [12]: 74.6 µM | TGI [14]: 45.7 µM | TGI [56]: 46.7 µM | TGI [15]: > 100 µM | TGI [16]: > 100 µM | TGI [17]: 64.4 µM | TGI [18]: 54.6 µM | TGI [57]: 95.8 µM | TGI [19]: 58.6 µM | TGI [20]: > 100 µM | TGI [21]: 65.2 µM | TGI [22]: 53.7 µM | TGI [24]: > 100 µM | TGI [26]: > 100 µM | TGI [27]: > 100 µM | TGI [28]: > 100 µM | TGI [58]: > 100 µM | TGI [29]: > 100 µM | TGI [30]: 57.7 µM | TGI [31]: > 100 µM | TGI [32]: 69.6 µM | TGI [59]: > 100 µM | TGI [33]: 84.9 µM | TGI [34]: 67.3 µM | TGI [35]: > 100 µM | TGI [36]: > 100 µM | TGI [37]: > 100 µM | TGI [38]: 71.5 µM | TGI [39]: 72.9 µM | TGI [40]: 68.2 µM | TGI [41]: 78.4 µM | TGI [42]: 83.3 µM | TGI [43]: > 100 µM | TGI [44]: > 100 µM | TGI [45]: 69 µM | TGI [46]: 73.1 µM | TGI [48]: 69 µM | TGI [49]: > 100 µM | TGI [50]: > 100 µM | TGI [51]: 82.8 µM | TGI [52]: > 100 µM | TGI [54]: > 100 µM
